The source of these data is publication PMC4301629 (PLoS ONE, 2015).

The target of experiment [1] is T1, α1A-AR (Homo sapiens, UniProt P35348).
T1 sequence (P35348 1-466): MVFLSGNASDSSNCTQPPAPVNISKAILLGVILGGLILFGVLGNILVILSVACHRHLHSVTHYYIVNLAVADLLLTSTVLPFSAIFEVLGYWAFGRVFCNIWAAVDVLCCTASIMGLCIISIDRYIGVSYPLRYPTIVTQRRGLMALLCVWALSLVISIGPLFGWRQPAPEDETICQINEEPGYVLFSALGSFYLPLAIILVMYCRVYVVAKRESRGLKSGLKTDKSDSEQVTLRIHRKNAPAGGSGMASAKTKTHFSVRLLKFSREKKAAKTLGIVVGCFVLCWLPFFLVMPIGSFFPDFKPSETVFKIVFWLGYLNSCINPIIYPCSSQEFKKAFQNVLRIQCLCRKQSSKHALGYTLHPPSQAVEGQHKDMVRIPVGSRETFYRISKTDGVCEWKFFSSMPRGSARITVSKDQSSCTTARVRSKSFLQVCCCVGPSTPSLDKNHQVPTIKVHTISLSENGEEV
In words: Translocation of GFP-tagged β-arrestin-1/2 in HEK293 cells expressing FLAG-α1A-AR (confocal microscopy). It counts as cell-based. Also noted: expressed in transfected cells; host or cells: HEK-293/EBNA (baculovirus transduction, NaBu induction). Conditions: HEK293, 1 μM A-61603 or 1 mM Iso. Here is the method: HEK293 cells were transiently co-transfected with FLAG-tagged α1A – AR and one of the following GFP-tagged proteins: Rab5 (Rab5 Q79L) variant, Rab11 (Rab11 S25N) variant, β-arrestin-1 or β-arrestin-2. Rab5 and Rab11 were kindly provided by Dr. Marino Zerial (Max Planck Institute of Molecular Cell Biology and Genetics, Dresden, Germany). […] After treatment, cells were fixed with freshly prepared 3.7% paraformaldehyde in PBS for 15 min at room temperature. Subsequently, cells were permeabilized with 0.1% Triton X-100 (Sigma-Aldrich) in PBS for 5 min, followed by nonspecific binding site blocking with 3% normal serum (Santa Cruz Biotechnology) in PBS for 1 h. Incubation with Alexa Fluor-568 conjugated anti-FLAG antibodies in blocking solution was done as directed by the manufacturer. Confocal microscopy was performed using a Zeiss LSM 510 META laser scanning microscope (Carl Zeiss, Inc., Thornwood, NY) equipped with a 60X objective, using the following laser wavelengths: excitation at 488 nm and emission at 505–530 nm; excitation at 543 nm and emission at 560–615 nm.
HEK293 cells were co-transfected with FLAG-tagged α1A – AR and GFP- tagged β-arrestin-1 (left panels) or β-arrestin-2 (right panels). […] Cells were then fixed, permeabilized, stained with Alexa Fluor-568 conjugated anti-FLAG antibodies, and analyzed employing confocal microscopy.

The target in experiment [2] is T1, α1A-AR. In words: MAPK activation (AlphaScreen SureFire p-ERK) in α1A-AR transduced HEK-293/EBNA cells. The class given is cell-based. Also noted: expressed in transfected cells; host or cells: HEK-293/EBNA (baculovirus transduction, NaBu induction). The settings on record: α1A-AR transduced HEK-293/EBNA. The method, then: Prior to experiments, cells were transduced with baculovirus strains designed for transient expression of α1A-AR or aldehyde oxidase (negative control). This was performed by incubating cells with virus (MOI 100–150) for 3 to 4 h, followed by exchange into fresh serum free growth medium supplemented with 4 mM sodium butyrate (NaBu). Cells were grown for another 14 to 18 h and then examined for agonist-evoked responses in transient Ca^2+ release, IP accumulation or pERK activation assays. The surface receptor expression density was determined by flow cytometry via immunofluorescence labeling of an N-terminal HA epitope tag on the receptor and radioligand binding in partially purified membranes.
Graphs shown reflect either pooled or representative data (see figure legends). For concentration-response analysis, results from Ca^2+ mobilization experiments were plotted as ΔF/F0 vs. agonist concentration and fit to a sigmoidal concentration-response equation using the GraphPad Prism software package. […] For radioligand binding experiments, B max values were calculated from maximum binding using the equation B max = (SB × ([…] + [L])/[L]), where SB is the specific binding expressed as fmol per mg of membrane protein, and [L] is the ligand concentration.
On the technique in general: Bead proximity is the source of the signal in Alpha formats.

Experiment [3] deals with T2, β2-AR (Homo sapiens, UniProt P07550).
T2 construct: HEK-293/EBNA cells are known to express β2-AR endogenously; endogenous in cells; host or cells: HEK-293/EBNA (untransduced or negative-control transduced)
T2 sequence (P07550 whole entry): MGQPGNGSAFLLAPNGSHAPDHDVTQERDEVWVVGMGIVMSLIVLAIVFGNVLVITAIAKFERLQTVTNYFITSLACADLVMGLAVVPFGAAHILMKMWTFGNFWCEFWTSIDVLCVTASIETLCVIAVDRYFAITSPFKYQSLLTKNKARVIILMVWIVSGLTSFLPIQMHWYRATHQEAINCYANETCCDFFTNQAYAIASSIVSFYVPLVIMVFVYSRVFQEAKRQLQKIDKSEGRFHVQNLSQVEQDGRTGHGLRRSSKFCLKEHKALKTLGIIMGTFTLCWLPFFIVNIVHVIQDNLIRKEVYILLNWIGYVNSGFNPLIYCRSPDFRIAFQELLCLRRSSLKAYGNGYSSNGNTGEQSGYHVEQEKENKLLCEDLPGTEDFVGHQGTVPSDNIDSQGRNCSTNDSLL
Conditions: HEK293/EBNA; read-out: EC50 Ca2+; cited from earlier work.

For experiment [4], the target named is T2, β2-AR. The settings on record: HEK293/EBNA; [125I-CYP] used as radioligand (footnote 1a); cited from earlier work.
Experiment [5] addresses T2, β2-AR. Briefly: MAPK activation (AlphaScreen SureFire p-ERK) in untransduced HEK-293/EBNA cells. It counts as cell-based. The settings on record: HEK293/EBNA.
Experiment [6] deals with T1, α1A-AR. In words: LC-MS detection of IP1, IP2 and IP3 in α1A-AR transduced HEK-293/EBNA cells. It counts as cell-based. Also noted: expressed in transfected cells; host or cells: HEK-293/EBNA (baculovirus transduction, NaBu induction). The settings on record: Iso up to 10 mM. The method, then: (§1) Virally transduced HEK-293/EBNA cells were resuspended in growth medium and seeded in poly-D-lysine coated 96-well black plates at a density of 100,000 cells/0.1 mL per well, Cells were allowed to attach for 2 hours at 37°C in a humidified atmosphere of 95% air and 5% CO2. After that, the medium was replaced with agonist solution in assay buffer (20 mM HEPES, 10 mM glucose, 1.8 mM CaCl2, 0.5 mM MgSO4, in HBSS 1X buffer, 50 mM LiCl) and cells were incubated at 37°C for 30 min. Stimulation was stopped by exchange of assay buffer with lysis buffer (100 μL 0.1N HCl/MeOH), and lysis proceeded for 30 min at 4°C. Cellular levels of inositol phosphates were determined using a Thermo LC-MS detection system following a published protocol. Chromatography was performed employing a BioBasic column AX (50 × 2.1 mm, Thermo). The mobile phase consisted of solvent A: 10 mM ammonium acetate, pH 6 in 30/70 acetonitrile/water, and solvent B: 1 mM ammonium acetate, pH 11 in 30/70 acetonitrile/water. A gradient solvent system was used starting with 0% solvent B, and analytes were eluted by increasing solvent B to 100% over 3 min. Each data point represents the average of triplicate determinations and each experiment was performed at least three times independently.

Experiment [7] deals with T1, α1A-AR. Briefly: LC-MS detection of IP1, IP2 and IP3 in α1A-AR_CHO stable cells. The class given is cell-based. Set-up: expressed in transfected cells. Conditions: α1A-AR CHO, Iso up to 1 mM. Here is the method: as §1, with “After” for “Virally transduced HEK-293/EBNA cells were resuspended in growth medium and seeded in poly-D-lysine coated 96-well black plates at a density of 100,000 cells/0.1 mL per well, Cells were allowed to attach for 2 hours at 37°C in a humidified atmosphere of 95% air and 5% CO2. After”
IP1, IP2, and IP3 levels were determined via LC-MS. Plots are representative of three independent experiments with each data point being the average of triplicates.

The test system of experiment [8] is HEK293/EBNA cells. In words: IP accumulation (IP-One HTRF) in untransduced HEK-293/EBNA cells. It counts as cell-based. For orientation: TR-FRET usually uses a lanthanide donor and a delayed reading to cut background.
Experiment [9] has as its target T2, β2-AR. In words: cAMP accumulation in untransduced HEK-293/EBNA cells. Conditions: HEK293/EBNA. It counts as cell-based.

The structures appear in SMILES notation.

As usually defined, the EC50 is the concentration that produces a half-maximal response. As usually defined, the Ki is a dissociation constant, usually derived from enzyme kinetics or from competition with a known ligand. As for `CS(=O)(=O)Nc1c(O)ccc2c1CCCC2C1=NCCN1` (stereo not shown) [A-61603], the “translocation of β-arrestin-1 / β-arrestin-2” value in experiment [1] is given as “did not induce significant translocation”. Also, the “times more potent at inducing p-ERK formation than Ca2+ mobilization” value in [2] is recorded as approximately 4 times. Moreover, the EC50 in [3] was 0.003 µM. In experiment [4], the inhibition constant Ki was 24 µM. In experiment [5], the “EC50 p-ERK” value is “BQL”. Also, in experiment [6], the “cellular levels of inositol phosphates IP1, IP2 and IP3” value is “concentration-dependent increases”. The “cellular concentration of inositol phosphates IP1, IP2 and IP3” value in experiment [7] was “concentration-dependent increases”. In addition, the “EC50 IP” value in experiment [8] (HEK293/EBNA untransduced) is listed as “BQL”. In addition, the IP formation result in experiment [8] (untransduced cells, data not shown) is on record as “not detectable”. For the same compound, the “EC50 cAMP” value in experiment [9] is listed as “BQL”.
